Assay results as given in ChEMBL document CHEMBL4507276 (2021).

Tests used:
[1] = biological target: TGF-beta receptor type-2 (Homo sapiens) (UniProt P37173); details: Compound concentration 1000.0 nM
[2] = biological target: Tyrosine-protein kinase JAK1 (Homo sapiens) (UniProt P23458); details: Compound concentration 1000.0 nM
[3] = biological target: Fibroblast growth factor receptor 3 (Homo sapiens) (UniProt P22607); details: Compound concentration 1000.0 nM
[4] = biological target: Non-receptor tyrosine-protein kinase TNK1 (Homo sapiens) (UniProt Q13470); details: Compound concentration 1000.0 nM
[5] = biological target: Serine/threonine-protein kinase 38 (Homo sapiens) (UniProt Q15208); details: Compound concentration 1000.0 nM
[6] = biological target: Activin receptor type-2A (Homo sapiens) (UniProt P27037); details: Compound concentration 1000.0 nM
[7] = biological target: Sigma intracellular receptor 2 (Homo sapiens) (UniProt Q5BJF2); details: Compound concentration 10.0 uM
[8] = biological target: T1, 5-hydroxytryptamine receptor 1A (Homo sapiens) (UniProt P08908); details: Compound concentration 10.0 uM
T1 sequence (whole entry): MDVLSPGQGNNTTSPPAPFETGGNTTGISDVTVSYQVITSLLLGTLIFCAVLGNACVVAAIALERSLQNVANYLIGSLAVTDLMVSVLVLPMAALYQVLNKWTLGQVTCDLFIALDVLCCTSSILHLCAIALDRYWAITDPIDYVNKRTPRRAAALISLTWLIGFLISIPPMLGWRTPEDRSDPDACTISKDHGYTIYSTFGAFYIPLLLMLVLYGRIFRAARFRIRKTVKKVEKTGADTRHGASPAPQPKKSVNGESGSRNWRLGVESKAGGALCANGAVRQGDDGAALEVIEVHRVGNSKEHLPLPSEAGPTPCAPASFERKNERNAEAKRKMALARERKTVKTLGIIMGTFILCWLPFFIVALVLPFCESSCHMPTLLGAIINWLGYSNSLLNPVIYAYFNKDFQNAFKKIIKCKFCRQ

[9] = biological target: Serine/threonine-protein kinase pim-2 (Homo sapiens) (UniProt Q9P1W9); details: Compound concentration 1000.0 nM
[10] = tested on: Proto-oncogene tyrosine-protein kinase receptor Ret (Homo sapiens), P07949 [V804M]; details: Compound concentration 1000.0 nM
[11] = biological target: Serine/threonine-protein kinase PLK1 (Homo sapiens) (UniProt P53350); details: Compound concentration 1000.0 nM
[12] = biological target: Calcium/calmodulin-dependent protein kinase type 1B (Homo sapiens) (UniProt Q6P2M8); details: Compound concentration 1000.0 nM
[13] = biological target: Serine/threonine-protein kinase Nek6 (Homo sapiens) (UniProt Q9HC98); details: Compound concentration 1000.0 nM
[14] = biological target: Beta-2 adrenergic receptor (Homo sapiens) (UniProt P07550); details: Compound concentration 10.0 uM
[15] = biological target: T2, Aurora kinase C (Homo sapiens) (UniProt Q9UQB9); details: Compound concentration 1000.0 nM
T2 sequence (whole entry): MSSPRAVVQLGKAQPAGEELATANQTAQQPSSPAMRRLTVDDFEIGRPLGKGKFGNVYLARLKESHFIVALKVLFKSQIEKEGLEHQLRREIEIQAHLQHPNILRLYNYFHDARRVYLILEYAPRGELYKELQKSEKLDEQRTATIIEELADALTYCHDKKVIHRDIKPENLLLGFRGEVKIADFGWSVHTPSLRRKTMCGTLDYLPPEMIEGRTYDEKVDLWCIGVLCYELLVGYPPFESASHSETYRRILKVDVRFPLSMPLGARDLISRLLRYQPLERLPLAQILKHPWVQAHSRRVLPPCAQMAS

[16] = biological target: Cyclin-dependent kinase 3 (Homo sapiens) (UniProt Q00526); details: Compound concentration 1000.0 nM
[17] = biological target: Dual specificity tyrosine-phosphorylation-regulated kinase 2 (Homo sapiens) (UniProt Q92630); details: Compound concentration 1000.0 nM
[18] = biological target: Rhodopsin kinase GRK1 (Homo sapiens) (UniProt Q15835); details: Compound concentration 1000.0 nM
[19] = biological target: Serine/threonine-protein kinase PAK 4 (Homo sapiens) (UniProt O96013); details: Compound concentration 1000.0 nM
[20] = biological target: Serine/threonine-protein kinase 24 (Homo sapiens) (UniProt Q9Y6E0); details: Compound concentration 1000.0 nM
[21] = biological target: Calcium/calmodulin-dependent protein kinase type 1 (Homo sapiens) (UniProt Q14012); details: Compound concentration 1000.0 nM
[22] = biological target: Cyclin-dependent kinase 14 (Homo sapiens) (UniProt O94921); details: Compound concentration 1000.0 nM
[23] = biological target: Phosphatidylinositol 4-phosphate 5-kinase type-1 alpha (Homo sapiens) (UniProt Q99755); details: Compound concentration 1000.0 nM
[24] = biological target: Serine/threonine-protein kinase PAK 6 (Homo sapiens) (UniProt Q9NQU5); details: Compound concentration 1000.0 nM
[25] = biological target: Serine/threonine-protein kinase MRCK gamma (Homo sapiens) (UniProt Q6DT37); details: Compound concentration 1000.0 nM
[26] = biological target: Fibroblast growth factor receptor 1 (Homo sapiens) (UniProt P11362); details: Compound concentration 1000.0 nM
[27] = tested on: Tyrosine-protein kinase ABL1 (Homo sapiens), P00519 [T315I]; details: Compound concentration 1000.0 nM
[28] = biological target: T3, Interleukin-1 receptor-associated kinase 4 (Homo sapiens) (UniProt Q9NWZ3); details: Compound concentration 1000.0 nM
T3 sequence (whole entry): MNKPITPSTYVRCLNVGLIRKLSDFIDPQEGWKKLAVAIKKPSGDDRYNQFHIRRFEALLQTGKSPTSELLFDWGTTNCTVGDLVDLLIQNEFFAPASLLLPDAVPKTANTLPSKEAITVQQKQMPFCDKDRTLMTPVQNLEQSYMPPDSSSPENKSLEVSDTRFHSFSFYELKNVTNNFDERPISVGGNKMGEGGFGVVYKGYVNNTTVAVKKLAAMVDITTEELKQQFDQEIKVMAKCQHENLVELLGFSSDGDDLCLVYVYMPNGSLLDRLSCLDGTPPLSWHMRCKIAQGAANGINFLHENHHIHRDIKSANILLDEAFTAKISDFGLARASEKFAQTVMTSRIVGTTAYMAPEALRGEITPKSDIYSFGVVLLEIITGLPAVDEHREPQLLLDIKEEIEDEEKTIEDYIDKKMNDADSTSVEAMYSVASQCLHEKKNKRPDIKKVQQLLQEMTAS

[29] = biological target: Casein kinase II subunit alpha' (Homo sapiens) (UniProt P19784); details: Compound concentration 1000.0 nM
Casein kinase II subunit alpha' (Homo sapiens), sequence (P19784 whole entry, looked up): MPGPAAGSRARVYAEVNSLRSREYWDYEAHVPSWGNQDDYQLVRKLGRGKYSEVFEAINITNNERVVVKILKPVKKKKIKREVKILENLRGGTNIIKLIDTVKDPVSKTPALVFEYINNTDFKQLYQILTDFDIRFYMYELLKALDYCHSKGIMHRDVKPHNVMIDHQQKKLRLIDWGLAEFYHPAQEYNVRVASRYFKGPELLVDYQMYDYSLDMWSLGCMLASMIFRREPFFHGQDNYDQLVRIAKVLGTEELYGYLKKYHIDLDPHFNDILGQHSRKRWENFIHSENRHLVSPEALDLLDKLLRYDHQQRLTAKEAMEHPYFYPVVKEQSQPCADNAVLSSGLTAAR

Cyclin-dependent kinase 3 (Homo sapiens), sequence (Q00526 whole entry, looked up): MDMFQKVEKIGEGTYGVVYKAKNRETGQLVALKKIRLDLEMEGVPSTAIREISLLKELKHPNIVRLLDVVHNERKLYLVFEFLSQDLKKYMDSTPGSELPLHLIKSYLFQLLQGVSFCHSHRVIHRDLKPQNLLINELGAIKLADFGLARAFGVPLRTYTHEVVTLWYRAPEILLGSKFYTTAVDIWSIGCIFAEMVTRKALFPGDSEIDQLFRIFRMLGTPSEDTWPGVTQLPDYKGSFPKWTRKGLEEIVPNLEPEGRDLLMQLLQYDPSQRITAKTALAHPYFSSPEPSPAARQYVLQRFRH
Dual specificity tyrosine-phosphorylation-regulated kinase 2 (Homo sapiens), sequence (Q92630 whole entry): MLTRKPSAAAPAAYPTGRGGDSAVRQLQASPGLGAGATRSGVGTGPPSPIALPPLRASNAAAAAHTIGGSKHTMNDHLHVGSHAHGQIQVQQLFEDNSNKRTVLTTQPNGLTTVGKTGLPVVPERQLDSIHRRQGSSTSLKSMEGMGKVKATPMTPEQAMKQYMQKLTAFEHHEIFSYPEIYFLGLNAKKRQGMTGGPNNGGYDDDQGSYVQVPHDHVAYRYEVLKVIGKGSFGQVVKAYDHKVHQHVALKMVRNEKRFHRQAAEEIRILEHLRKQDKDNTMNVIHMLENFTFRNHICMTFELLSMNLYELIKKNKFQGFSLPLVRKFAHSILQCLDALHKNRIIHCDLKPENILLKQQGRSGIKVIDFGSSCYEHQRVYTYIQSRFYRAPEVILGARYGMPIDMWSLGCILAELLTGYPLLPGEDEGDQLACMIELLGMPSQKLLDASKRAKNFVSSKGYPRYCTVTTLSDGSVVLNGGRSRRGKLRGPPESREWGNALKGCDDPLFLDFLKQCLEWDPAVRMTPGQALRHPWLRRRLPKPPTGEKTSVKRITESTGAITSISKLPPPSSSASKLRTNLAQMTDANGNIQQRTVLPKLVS
Fibroblast growth factor receptor 3 (Homo sapiens), sequence (P22607 23-806 limits assumed): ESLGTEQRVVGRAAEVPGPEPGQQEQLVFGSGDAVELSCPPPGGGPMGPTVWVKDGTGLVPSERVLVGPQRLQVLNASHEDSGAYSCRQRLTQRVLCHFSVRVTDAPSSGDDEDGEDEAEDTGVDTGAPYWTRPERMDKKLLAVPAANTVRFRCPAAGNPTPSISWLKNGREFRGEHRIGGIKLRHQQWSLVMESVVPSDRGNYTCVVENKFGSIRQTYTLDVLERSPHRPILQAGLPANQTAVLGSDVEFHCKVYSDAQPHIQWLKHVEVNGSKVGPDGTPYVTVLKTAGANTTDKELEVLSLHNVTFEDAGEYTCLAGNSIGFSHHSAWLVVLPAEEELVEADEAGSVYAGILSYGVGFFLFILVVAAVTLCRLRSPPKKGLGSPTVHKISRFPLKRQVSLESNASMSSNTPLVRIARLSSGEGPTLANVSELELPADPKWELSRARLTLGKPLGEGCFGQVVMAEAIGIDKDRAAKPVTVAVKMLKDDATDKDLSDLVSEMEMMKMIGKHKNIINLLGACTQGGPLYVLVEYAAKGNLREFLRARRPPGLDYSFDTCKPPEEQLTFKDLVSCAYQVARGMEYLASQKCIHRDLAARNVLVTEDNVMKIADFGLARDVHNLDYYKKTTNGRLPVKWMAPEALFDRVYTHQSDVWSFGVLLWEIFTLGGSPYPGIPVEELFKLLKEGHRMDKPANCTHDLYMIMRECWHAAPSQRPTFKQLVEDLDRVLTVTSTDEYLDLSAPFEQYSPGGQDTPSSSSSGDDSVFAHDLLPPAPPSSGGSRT
Serine/threonine-protein kinase PLK1 (Homo sapiens), sequence (P53350 whole entry): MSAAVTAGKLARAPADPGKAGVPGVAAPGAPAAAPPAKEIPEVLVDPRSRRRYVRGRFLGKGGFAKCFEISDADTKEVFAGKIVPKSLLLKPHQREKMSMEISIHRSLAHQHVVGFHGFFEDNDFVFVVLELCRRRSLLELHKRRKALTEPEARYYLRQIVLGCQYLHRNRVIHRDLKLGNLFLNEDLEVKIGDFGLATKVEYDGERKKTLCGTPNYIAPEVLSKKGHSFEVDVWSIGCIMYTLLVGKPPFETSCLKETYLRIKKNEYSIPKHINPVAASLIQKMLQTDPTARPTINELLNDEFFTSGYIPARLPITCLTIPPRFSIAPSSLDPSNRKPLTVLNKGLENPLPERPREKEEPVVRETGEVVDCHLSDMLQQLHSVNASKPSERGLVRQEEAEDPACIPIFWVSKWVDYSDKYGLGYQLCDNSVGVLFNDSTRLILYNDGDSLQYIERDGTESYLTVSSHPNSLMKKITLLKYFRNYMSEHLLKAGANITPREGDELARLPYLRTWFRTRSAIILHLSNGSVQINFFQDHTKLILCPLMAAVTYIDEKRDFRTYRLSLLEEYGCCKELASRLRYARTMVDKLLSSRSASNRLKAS
Sigma intracellular receptor 2 (Homo sapiens), sequence (Q5BJF2 whole entry): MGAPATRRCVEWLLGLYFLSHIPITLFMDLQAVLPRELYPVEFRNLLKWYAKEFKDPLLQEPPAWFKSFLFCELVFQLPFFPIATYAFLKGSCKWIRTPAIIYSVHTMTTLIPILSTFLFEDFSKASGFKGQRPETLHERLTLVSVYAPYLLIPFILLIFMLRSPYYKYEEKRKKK
Activin receptor type-2A (Homo sapiens), sequence (P27037 whole entry): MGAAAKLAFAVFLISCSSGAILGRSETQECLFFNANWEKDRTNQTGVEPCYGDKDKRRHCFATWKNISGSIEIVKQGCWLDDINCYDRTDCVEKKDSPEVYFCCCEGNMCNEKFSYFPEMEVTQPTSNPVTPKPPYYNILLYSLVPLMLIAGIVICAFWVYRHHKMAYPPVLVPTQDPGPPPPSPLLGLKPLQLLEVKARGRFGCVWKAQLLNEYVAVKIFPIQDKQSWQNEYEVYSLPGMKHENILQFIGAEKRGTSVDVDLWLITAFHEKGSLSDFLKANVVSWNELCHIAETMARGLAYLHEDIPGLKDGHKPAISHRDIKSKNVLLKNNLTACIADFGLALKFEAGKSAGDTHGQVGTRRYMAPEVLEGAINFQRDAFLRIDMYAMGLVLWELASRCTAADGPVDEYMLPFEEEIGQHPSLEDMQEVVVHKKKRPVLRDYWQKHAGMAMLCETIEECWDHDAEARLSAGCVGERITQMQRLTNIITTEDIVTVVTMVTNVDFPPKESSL
Tyrosine-protein kinase JAK1 (Homo sapiens), sequence (P23458 whole entry): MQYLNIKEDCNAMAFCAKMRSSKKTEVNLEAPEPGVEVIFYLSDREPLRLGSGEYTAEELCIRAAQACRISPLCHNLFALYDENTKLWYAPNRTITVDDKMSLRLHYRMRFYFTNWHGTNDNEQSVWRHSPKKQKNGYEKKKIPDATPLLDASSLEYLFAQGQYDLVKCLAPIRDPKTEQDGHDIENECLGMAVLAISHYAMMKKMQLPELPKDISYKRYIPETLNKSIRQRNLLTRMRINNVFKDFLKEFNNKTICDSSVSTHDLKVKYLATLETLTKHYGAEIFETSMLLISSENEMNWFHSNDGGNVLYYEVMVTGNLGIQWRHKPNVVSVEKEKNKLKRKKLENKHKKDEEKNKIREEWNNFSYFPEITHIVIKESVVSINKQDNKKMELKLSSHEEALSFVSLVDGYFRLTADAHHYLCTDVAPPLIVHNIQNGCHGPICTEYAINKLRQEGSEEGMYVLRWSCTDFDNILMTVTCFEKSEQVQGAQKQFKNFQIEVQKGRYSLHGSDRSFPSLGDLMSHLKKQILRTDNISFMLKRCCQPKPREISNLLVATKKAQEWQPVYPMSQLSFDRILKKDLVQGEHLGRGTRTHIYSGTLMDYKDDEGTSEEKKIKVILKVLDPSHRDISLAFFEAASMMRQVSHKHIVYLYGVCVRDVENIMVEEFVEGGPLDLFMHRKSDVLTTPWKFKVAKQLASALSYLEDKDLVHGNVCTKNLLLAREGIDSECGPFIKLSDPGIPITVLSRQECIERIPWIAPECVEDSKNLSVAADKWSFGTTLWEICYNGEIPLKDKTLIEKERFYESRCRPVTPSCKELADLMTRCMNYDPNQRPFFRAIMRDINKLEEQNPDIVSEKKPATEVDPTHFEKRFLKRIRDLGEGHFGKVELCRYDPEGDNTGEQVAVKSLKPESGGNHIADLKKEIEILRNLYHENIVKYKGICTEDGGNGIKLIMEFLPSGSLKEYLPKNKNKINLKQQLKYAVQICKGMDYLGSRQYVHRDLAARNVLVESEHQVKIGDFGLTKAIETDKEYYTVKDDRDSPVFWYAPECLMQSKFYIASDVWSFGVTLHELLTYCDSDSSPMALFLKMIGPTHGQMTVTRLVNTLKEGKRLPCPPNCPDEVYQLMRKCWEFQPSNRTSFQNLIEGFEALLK
Serine/threonine-protein kinase 24 (Homo sapiens), sequence (Q9Y6E0 whole entry, looked up): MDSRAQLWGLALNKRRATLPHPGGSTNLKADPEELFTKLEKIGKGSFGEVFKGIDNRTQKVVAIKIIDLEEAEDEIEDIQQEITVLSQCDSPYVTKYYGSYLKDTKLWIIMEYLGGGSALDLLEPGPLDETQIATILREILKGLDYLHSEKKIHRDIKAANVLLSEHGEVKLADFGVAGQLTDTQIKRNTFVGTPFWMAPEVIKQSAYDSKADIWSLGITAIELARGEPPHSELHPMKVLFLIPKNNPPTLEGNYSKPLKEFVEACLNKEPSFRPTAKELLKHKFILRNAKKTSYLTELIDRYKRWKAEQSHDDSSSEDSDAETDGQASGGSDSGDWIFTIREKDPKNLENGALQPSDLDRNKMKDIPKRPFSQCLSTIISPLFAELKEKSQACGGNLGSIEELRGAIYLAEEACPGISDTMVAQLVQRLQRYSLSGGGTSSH

CN(C)C(=O)Cn1cc(-c2nc(C3(c4ccc(-c5cnc(N)nc5)cc4)CC3)no2)cn1 [BI 0153]
inactive: residual activity [1] 100% | residual activity [2] 76% | residual activity [3] 100% | residual activity [4] 96% | residual activity [5] 84% | residual activity [6] 84% | inhibition [7] 25% | inhibition [8] 31.5% | residual activity [9] 100% | residual activity [10] 100% | residual activity [11] 82% | residual activity [12] 77% | residual activity [13] 81% | inhibition [14] 3.55% | residual activity [15] 100% | residual activity [16] 100% | residual activity [17] 81% | residual activity [18] 74% | residual activity [19] 100% | residual activity [20] 100% | residual activity [21] 100% | residual activity [22] 100% | residual activity [23] 95% | residual activity [24] 100% | residual activity [25] 82% | residual activity [26] 72% | residual activity [27] 100% | residual activity [28] 84% | residual activity [29] 100%

CN(C)C(=O)Cn1cc(-c2nc([C@@](C)(c3ccc(-c4cnc(N)nc4)cc3)C3CC3)no2)cn1 [BI 665915]
inactive: residual activity [1] 88% | residual activity [2] 100% | residual activity [3] 94% | residual activity [4] 100% | residual activity [5] 80% | residual activity [6] 81% | inhibition [7] 10.1% | inhibition [8] 6.78% | residual activity [9] 100% | residual activity [10] 97% | residual activity [11] 77% | residual activity [12] 88% | residual activity [13] 100% | inhibition [14] 0.497% | residual activity [15] 100% | residual activity [16] 100% | residual activity [17] 89% | residual activity [18] 100% | residual activity [19] 96% | residual activity [20] 100% | residual activity [21] 100% | residual activity [22] 99% | residual activity [23] 90% | residual activity [24] 100% | residual activity [25] 87% | residual activity [26] 95% | residual activity [27] 90% | residual activity [28] 85% | residual activity [29] 90%
